# Test results as given in US20240174637A1, “DEGRADERS OF GRK2 AND USES THEREOF” (Sonata Therapeutics, Inc., priority 2021, published 2024).
# Assays:
# GRK2 [1] = target: T1, GRK2 (Homo sapiens, UniProt P25098); experiment: ADPGlo GRK2 Inhibition Assay (Example 2); format: biochemical; conditions: ADP-Glo, 10 μM ATP; read-out: ADP Glo Enzymatic GRK2 Assay: IC50 (nM) (Example 2)
# T1 sequence (P25098 1-689): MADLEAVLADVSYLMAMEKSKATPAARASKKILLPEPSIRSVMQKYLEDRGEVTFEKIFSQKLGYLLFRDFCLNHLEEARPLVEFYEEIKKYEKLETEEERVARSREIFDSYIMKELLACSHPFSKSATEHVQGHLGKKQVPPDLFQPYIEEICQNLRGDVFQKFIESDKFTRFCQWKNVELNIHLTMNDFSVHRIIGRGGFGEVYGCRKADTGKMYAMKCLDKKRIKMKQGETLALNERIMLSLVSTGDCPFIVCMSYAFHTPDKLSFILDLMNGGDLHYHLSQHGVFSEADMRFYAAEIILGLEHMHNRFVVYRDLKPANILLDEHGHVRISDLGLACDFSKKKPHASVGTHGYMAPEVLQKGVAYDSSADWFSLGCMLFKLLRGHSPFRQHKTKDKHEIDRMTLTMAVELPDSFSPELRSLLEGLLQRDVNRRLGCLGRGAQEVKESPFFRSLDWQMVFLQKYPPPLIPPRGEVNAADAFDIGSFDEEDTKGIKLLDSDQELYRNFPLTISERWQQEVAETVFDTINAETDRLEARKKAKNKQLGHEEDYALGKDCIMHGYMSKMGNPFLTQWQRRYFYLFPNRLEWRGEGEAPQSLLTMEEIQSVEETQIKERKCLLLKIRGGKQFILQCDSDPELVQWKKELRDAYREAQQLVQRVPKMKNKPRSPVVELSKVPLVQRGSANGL
# Protocol: Assay: GRK2 (7.5 nM) was incubated with ATP (10 μM) and GRKtide (0.3 mg/mL) in 5 μL of assay buffer (see above) for 180 min at room temperature. HTS was performed using 1 μM compound. Compounds were dissolved in 100% DMSO, serially diluted tree-fold from 100 μM concentration to 46 nM and transferred (50 nL) into assay ready plate.
# (§1) Materials: GRK2 was purchased from SignalChem (Cat #A14-10G, Lot #X645-3). Substrate GRKtide was from SignalChem (Cat #G46-58, Lot #R339-6). ADP-Glo Kinase Assay from Promega (Cat #V9102). Assay buffer consisted of 25 mM HEPES (pH7.5), 10 mM MgCl2, 0.01% Tween-20, 1 mM DDT. 384-well white plates were from Greiner Bio-Rad (Item #784075).
# HTS protocol: Take 384 well plate with 50 nL of compound in columns 3-22/DMSO solution 1-2,23-24. Add 2.5 μL assay buffer to columns 23 and 24 using Thermo Scientific Multidrop Combi Dispenser. Add 2.5 μL of 2× enzyme solution (15 nM in 1× assay buffer) using Thermo Scientific Multidrop Combi Reagent Dispenser to all columns except of 23 and 24. Incubate for 15 minutes. Fill plate with 2.5 μL of 2× substrate mix (20 μM ATP and 0.6 mg/mL GRKtide in 1× assay buffer) using Thermo Scientific Multidrop Combi Reagent Dispenser. Spin 15 seconds at 1000 rpm and incubate for 180 min at room temperature. Add 5 μL ADP-Glo reagent to all the wells. Spin 15 seconds at 1000 rpm and incubate for 40 min at room temperature. Add 10 μL Detection solution to all the wells. Incubate for 30 min at room temperature. Read plate in Luminescent mode on BMG PheraStar FSX (gain=3600).
# Data Analysis: Data were analyzed in GraphPad Prism 8.0.2. Each HTS plate contains compounds in columns 3-22, controls (enzyme, no compound) in columns 1 and 2, and blanks (no enzyme) in columns 23 and 24. HTS percent inhibition was calculated for each compound from the signal in luminescence units and the mean of the plate controls and the mean of the plate blanks using the following equation: % Inhibition=100*(1−((signal−blank mean)/(control mean−blank mean))). At the final stage of data processing, we obtain dose-response curves, tables and SDF-files with the results of screening for each substance.
# GRK2 [2] = target: T1, GRK2; experiment: Second ADPGlo GRK2 Inhibition Assay (Example 3); format: biochemical; conditions: ADP-Glo, 20 μM ATP; read-out: Second ADPGlo Enzymatic GRK2 Assay: IC50 (nM) (Example 3)
# Protocol: Assay: GRK2 (2 nM) was incubated with ATP (20 μM) and GRKtide (1.2 mg/mL) in 11 μL of assay buffer (see above) for 180 min at room temperature. Compounds were dissolved in 100% DMSO, serially diluted 3.16-fold from 100 μM with 10 concentration points and transferred as 100× into assay plate (final compounds concentration in the reaction plate from 1 μM).
# as §1, with “of 20” for “of 25”, “(pH7.5), 20” for “(pH7.5), 10”, “Tween-20, 0.05” for “Tween-20, 1”, “from Corning (Cat #4513).” for “from Greiner Bio-Rad (Item #784075).”
# HTS protocol: Add 5.5 μL of 2× substrate-enzyme mix into all columns except of 1-2 and 24 of reaction plate. Spin 15 seconds at 200 g. Transfer 1 ul of compounds from the plate with serial dilutions (384 well plate with 22 uL of compound in columns 3-22/DMSO solution 1-2,23-24) to Dilution plate (384 well plate with 49 uL of buffer with 2×40 μM ATP). After mixing transfer 5.5 ul from Dilution plate to Reaction plate (to 5.5 μL of 2× substrate-enzyme mix). Spin 15 seconds at 200 g and incubate for 180 min at room temperature with sealing. Add 3 μL ADP-Glo reagent to all the wells. Spin 15 seconds at 200 g and incubate for 40 min at room temperature. Add 6 μL Detection solution to all the wells. Incubate for 30 min at room temperature. Read plate using ClarioStar Plus (BMG).
# Data Analysis: Data were analyzed in GraphPad Prism 5.0.2. Each HTS plate contains compounds in columns 3-22, controls (enzyme, no compound) in column 23, and blanks (no enzyme) in columns 2. HTS percent inhibition was calculated for each compound from the signal in luminescence units and the mean of the plate controls and the mean of the plate blanks using the following equation: % Inhibition=100*(1-(signal-blank mean)/(control mean-blank mean)).
Structure (SMILES),IC50 (GRK2 [1]) [nM],IC50 (GRK2 [2]) [nM]
Cc1ncsc1-c1ccc(CNC(=O)[C@@H]2C[C@@H](O)CN2C(=O)[C@@H](NC(=O)COCCOCCOCCOCCOCCOCCCCCCOc2cccc(CNC(=O)c3cccc(NCc4nnc(-c5ccncn5)n4C)c3)c2)C(C)(C)C)cc1 [Compound D100],< 100,< 100
Cc1ncsc1-c1ccc(CNC(=O)[C@@H]2C[C@@H](O)CN2C(=O)[C@@H](NC(=O)COCCOCCCCCCOc2cccc(CNC(=O)c3cccc(NCc4nnc(-c5ccncn5)n4C)c3)c2)C(C)(C)C)cc1 [Compound D101],< 100,< 100
